Source: US20240165244A1 (Prelude Therapeutics Incorporated, priority 2022, published 2024)

Columns and labels:
SMARCA4 = target: T1, SMARCA4 (Homo sapiens, UniProt P51532); assay: SMARCA4 HiBiT degradation assay in HeLa cells; assay type: cell-based; conditions: 18 hours, highest concentration 10 μM
T1 construct: SMARCA4-HiBiT knock-in Hela monoclonal cell (CS3023226); host or cells: HeLa monoclonal cells with heterozygous HiBiT knock-in at the endogenous SMARCA4 locus
Procedure, shortened: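 HeLa monoclonal cells with HiBiT knocked into SMARCA4 were seeded at 2500 cells/well, dosed with compound and incubated 18 hours at 37° C. HiBiT signal reported remaining SMARCA4 protein, and values came from curve fitting.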

SMARCA2 = target: T2, SMARCA2 (Homo sapiens, UniProt P51531); assay: SMARCA2 HiBiT degradation assay in HeLa cells; assay type: cell-based; conditions: 18 hours, highest concentration 10 μM
T2 construct: SMARCA2-HiBiT knock-in Hela monoclonal cell (CS302366); host or cells: HeLa monoclonal cells with heterozygous HiBiT knock-in at the endogenous SMARCA2 locus
Procedure, shortened: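 Degradation was read as Nano-Glo HiBiT lytic luminescence (30-60 min, RT) and fitted to curves. Compounds in 3-fold dilutions up to 10 μM were applied for 18 h at 37 °C. Cells were 2500/well monoclonal HeLa with a heterozygous C-terminal HiBiT tag on SMARCA2.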

T1 sequence (P51532 whole entry): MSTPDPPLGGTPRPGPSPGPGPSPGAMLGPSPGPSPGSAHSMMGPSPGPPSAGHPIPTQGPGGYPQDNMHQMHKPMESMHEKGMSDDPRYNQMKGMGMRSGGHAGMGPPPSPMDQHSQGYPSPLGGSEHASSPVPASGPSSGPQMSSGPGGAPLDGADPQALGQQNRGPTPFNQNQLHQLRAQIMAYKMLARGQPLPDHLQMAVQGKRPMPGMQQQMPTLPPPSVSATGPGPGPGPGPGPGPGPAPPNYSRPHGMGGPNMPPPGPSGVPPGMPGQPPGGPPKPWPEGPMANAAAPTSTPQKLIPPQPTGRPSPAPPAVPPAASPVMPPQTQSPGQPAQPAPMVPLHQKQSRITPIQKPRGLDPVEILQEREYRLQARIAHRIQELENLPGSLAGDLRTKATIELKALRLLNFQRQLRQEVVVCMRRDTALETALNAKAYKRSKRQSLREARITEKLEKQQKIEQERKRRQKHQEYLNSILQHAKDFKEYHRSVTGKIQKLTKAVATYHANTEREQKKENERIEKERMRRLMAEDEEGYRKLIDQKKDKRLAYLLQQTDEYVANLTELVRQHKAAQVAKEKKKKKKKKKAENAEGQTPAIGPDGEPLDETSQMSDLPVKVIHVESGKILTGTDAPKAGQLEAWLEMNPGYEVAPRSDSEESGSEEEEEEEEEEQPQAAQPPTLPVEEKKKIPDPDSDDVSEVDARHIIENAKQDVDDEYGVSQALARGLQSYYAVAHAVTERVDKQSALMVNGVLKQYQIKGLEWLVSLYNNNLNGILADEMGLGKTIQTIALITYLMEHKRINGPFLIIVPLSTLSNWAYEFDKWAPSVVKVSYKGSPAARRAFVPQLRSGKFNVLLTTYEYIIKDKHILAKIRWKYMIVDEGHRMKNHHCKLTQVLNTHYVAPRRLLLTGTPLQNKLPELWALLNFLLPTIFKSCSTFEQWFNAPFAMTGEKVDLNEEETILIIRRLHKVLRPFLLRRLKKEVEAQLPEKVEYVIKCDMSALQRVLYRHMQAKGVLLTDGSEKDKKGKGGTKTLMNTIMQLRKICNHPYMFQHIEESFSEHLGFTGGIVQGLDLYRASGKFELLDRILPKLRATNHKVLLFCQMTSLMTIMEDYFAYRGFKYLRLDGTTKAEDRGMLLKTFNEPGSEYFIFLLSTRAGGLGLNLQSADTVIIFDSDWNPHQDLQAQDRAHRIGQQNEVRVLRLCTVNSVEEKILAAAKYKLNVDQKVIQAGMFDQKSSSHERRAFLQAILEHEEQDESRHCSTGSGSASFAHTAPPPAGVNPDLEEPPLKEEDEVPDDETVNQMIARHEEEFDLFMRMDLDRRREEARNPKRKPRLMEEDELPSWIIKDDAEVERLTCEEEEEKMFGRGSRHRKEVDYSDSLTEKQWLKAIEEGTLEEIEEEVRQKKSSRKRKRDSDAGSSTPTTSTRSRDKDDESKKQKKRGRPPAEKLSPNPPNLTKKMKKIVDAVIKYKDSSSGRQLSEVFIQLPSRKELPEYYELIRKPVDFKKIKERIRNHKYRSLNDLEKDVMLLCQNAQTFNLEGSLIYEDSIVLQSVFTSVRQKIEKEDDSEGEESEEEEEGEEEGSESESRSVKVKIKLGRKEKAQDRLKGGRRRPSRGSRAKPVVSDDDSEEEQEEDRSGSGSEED
T2 sequence (P51531 whole entry): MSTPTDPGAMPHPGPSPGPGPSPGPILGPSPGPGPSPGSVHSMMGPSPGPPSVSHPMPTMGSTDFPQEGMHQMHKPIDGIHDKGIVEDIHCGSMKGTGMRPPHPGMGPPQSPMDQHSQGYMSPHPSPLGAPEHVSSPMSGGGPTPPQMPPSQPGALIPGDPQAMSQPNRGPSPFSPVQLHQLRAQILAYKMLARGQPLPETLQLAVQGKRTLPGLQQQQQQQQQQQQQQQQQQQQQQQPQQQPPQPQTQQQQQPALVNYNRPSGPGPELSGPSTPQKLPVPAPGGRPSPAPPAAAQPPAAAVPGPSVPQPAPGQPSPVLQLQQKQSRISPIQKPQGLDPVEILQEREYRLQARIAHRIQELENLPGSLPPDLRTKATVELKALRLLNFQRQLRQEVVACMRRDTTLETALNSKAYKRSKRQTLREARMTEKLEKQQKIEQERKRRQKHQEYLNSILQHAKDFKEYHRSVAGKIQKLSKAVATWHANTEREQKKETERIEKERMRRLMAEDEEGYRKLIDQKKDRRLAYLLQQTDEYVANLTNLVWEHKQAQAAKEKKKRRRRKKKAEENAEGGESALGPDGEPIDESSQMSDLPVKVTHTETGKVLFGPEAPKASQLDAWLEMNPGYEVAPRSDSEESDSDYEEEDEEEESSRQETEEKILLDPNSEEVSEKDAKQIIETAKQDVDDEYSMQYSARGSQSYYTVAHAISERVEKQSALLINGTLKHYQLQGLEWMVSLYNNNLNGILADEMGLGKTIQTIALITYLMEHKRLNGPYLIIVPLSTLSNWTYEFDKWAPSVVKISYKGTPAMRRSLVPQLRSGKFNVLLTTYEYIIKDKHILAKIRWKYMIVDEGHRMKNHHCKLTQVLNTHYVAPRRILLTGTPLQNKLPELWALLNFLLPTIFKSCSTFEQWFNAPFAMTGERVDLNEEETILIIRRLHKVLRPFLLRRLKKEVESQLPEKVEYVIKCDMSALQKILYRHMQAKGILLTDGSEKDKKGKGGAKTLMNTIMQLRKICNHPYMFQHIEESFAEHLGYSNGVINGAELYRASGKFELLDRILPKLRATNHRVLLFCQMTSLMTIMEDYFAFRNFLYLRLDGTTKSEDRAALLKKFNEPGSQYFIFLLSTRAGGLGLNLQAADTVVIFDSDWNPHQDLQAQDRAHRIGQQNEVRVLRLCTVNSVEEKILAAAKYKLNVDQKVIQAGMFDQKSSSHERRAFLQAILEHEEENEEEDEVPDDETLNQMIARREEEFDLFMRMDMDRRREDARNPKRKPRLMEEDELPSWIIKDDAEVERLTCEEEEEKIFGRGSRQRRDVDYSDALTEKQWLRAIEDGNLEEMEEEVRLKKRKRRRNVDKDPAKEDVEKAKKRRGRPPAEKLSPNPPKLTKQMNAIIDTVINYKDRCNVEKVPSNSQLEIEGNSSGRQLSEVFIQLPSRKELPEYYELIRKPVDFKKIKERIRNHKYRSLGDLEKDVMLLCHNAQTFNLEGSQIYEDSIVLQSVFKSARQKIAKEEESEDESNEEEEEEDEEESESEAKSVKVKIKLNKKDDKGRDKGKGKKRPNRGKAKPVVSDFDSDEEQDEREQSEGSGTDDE

| Compound | DC50 (SMARCA4) [nM] | Dmax (SMARCA4) [%] | DC50 (SMARCA2) [nM] | Dmax (SMARCA2) [%] |
| --- | --- | --- | --- | --- |
| Cc1nc(O[C@H]2CN3c4cc(-c5cccc(F)c5O)nnc4NC[C@]3(CF)C2)c(F)cc1CN1CCN(c2ccc3c(c2)C(=O)N([C@H]2CCC(=O)NC2=O)C3)CC1 [Example 69, (S)-3-(6-(4-((5-fluoro-6-(((6aS,8R)-2-(3-fluoro-2-hydroxyphenyl)-6a-(fluoromethyl)-5,6,6a,7,8,9-hexahydropyrrolo[1′,2′:4,5]pyrazino[2,3-c]pyridazin-8-yl)oxy)-2-methylpyridin-3-yl)methyl)piperazin-1-yl)-1-oxoisoindolin-2-yl)piperidine-2,6-dione] | < 100 | > 75 | < 100 | > 75 |
| CC[C@]12CNc3nnc(-c4cccc(C)c4O)cc3N1C[C@H](Oc1cc(C)c(CN3CCC(c4ccc5c(c4)C(=O)N([C@H]4CCC(=O)NC4=O)C5)CC3)cn1)C2 [Example 98, (S)-3-(6-(1-((6-(((6aS,8R)-6a-ethyl-2-(2-hydroxy-3-methylphenyl)-5,6,6a, 7,8,9-hexahydropyrrolo[1′,2′:4,5]pyrazino[2,3-c]pyridazin-8-yl)oxy)-4-methylpyridin-3-yl)methyl)piperidin-4-yl)-1-oxoisoindolin-2-yl)piperidine-2,6-dione] | < 100 | > 75 | < 100 | > 75 |
| Cc1c(CN2CCC(c3ccc4c(c3)C(=O)N([C@H]3CCC(=O)NC3=O)C4)CC2)cnc(O[C@H]2CN3c4cc(-c5cccc(F)c5O)nnc4NC[C@]3(C(F)F)C2)c1F [Example 89, (S)-3-(6-(1-((6-(((6aS,8R)-6a-(difluoromethyl)-2-(3-fluoro-2-hydroxyphenyl)-5,6,6a,7,8,9-hexahydropyrrolo[1′,2′:4,5]pyrazino[2,3-c]pyridazine-8-yl)oxy)-5-fluoro-4-methylpyridin-3-yl)methyl)piperidin-4-yl)-1-oxoisoindolin-2-yl)piperidine-2,6-dione] | < 100 | > 75 | < 100 | > 75 |
| CCc1nc(CN2CCN(c3ccc4c(c3)C(=O)N([C@H]3CCC(=O)NC3=O)C4)CC2)cnc1O[C@H]1CN2c3cc(-c4cccc(F)c4O)nnc3NC[C@@]2(CF)C1 [Example 67, (S)-3-(6-(4-((6-ethyl-5-(((6aR,8R)-2-(3-fluoro-2-hydroxyphenyl)-6a-(fluoromethyl)-5,6,6a,7,8,9-hexahydropyrrolo[1′,2′:4,5]pyrazino[2,3-c]pyridazin-8-yl)oxy)pyrazin-2-yl)methyl)piperazin-1-yl)-1-oxoisoindolin-2-yl)piperidine-2,6-dione] | > 1000 | < 50 | < 100 | > 75 |
| Cc1cc(O[C@H]2CN3c4cc(-c5cccc(F)c5O)nnc4NC[C@]3(C)C2)c(C)nc1CN1CCN(c2ccc3c(c2)C(=O)N([C@H]2CCC(=O)NC2=O)C3)CC1 [Example 80, (S)-3-(6-(4-((5-(((6aS,8R)-2-(3-fluoro-2-hydroxyphenyl)-6a-methyl-5,6,6a,7,8,9-hexahydropyrrolo[1′,2′:4,5]pyrazino[2,3-c]pyridazin-8-yl)oxy)-3,6-dimethylpyridin-2-yl)methyl)piperazin-1-yl)-1-oxoisoindolin-2-yl)piperidine-2,6-dione] | < 100 | 50 to 75 | < 100 | > 75 |
| O=C1CCC(N2Cc3ccc(C4CCN(Cc5cnc(O[C@H]6CN7c8cc(-c9cccc(F)c9O)nnc8NC[C@@]7(C(F)F)C6)c(F)c5)CC4)cc3C2=O)C(=O)N1 (stereo partly drawn) [Example 88, 3-(6-(1-((6-(((6aR,8R)-6a-(difluoromethyl)-2-(3-fluoro-2-hydroxyphenyl)-5,6,6a,7,8,9-hexahydropyrrolo[1′,2′:4,5]pyrazino[2,3-c]pyridazin-8-yl)oxy)-5-fluoropyridin-3-yl)methyl)piperidin-4-yl)-1-oxoisoindolin-2-yl)piperidine-2,6-dione] | 100 to 1000 | < 50 | < 100 | > 75 |
| CC[C@@]12CNc3nnc(-c4cccc(F)c4O)cc3N1C[C@H](Sc1cc(C)c(CN3CCN(c4ccc5c(c4)C(=O)N([C@H]4CCC(=O)NC4=O)C5)CC3)cn1)C2 [Example 60, 3-(6-(4-((6-(((6aR,8R)-6a-ethyl-2-(3-fluoro-2-hydroxyphenyl)-5,6,6a,7,8,9-hexahydropyrrolo[1′,2′:4,5]pyrazino[2,3-c]pyridazin-8-yl)thio)-4-methylpyridin-3-yl)methyl)piperazin-1-yl)-1-oxoisoindolin-2-yl)piperidine-2,6-dione] | < 100 | 50 to 75 | < 100 | > 75 |

More lines, now with the values ahead:

| DC50 (SMARCA4) [nM] | Dmax (SMARCA4) [%] | DC50 (SMARCA2) [nM] | Dmax (SMARCA2) [%] | Compound |
| --- | --- | --- | --- | --- |
| < 100 | 50 to 75 | < 100 | > 75 | Cc1cccc(-c2cc3c(nn2)NC[C@H]2C[C@@H](Oc4ccc(CN5CCN(c6ccc7c(c6)C(=O)N(C6CCC(=O)NC6=O)C7)CC5)cc4)CN32)c1O (stereo partly drawn) [Example 23, 3-(6-(4-(4-(((6aR,8R)-2-(2-hydroxy-3-methylphenyl)-5,6,6a,7,8,9-hexahydropyrrolo[1′,2′:4,5]pyrazino[2,3-c]pyridazin-8-yl)oxy)benzyl)piperazin-1-yl)-1-oxoisoindolin-2-yl)piperidine-2,6-dione] |
| < 100 | > 75 | < 100 | > 75 | O=C1CCC(N2Cc3ccc(N4CCN(Cc5ccc(O[C@@H]6C[C@@H]7CNc8nnc(-c9cccc(F)c9O)cc8N7C6)cc5)CC4)cc3C2=O)C(=O)N1 (stereo partly drawn) [Example 5, 3-(6-(4-(4-(((6aR,8R)-2-(3-fluoro-2-hydroxyphenyl)-5,6,6a,7,8,9-hexahydropyrrolo[1′,2′:4,5]pyrazino[2,3-c]pyridazin-8-yl)oxy)benzyl)piperazin-1-yl)-1-oxoisoindolin-2-yl)piperidine-2,6-dione] |
| > 1000 | < 50 | < 100 | > 75 | O=C1CC[C@H](N2Cc3ccc(N4CCN(Cc5ccc(O[C@H]6CN7c8cc(-c9cccc(F)c9O)nnc8NC[C@@]7(C(F)F)C6)nc5)CC4)cc3C2=O)C(=O)N1 [Example 43, (S)-3-(6-(4-((6-(((6aR,8R)-6a-(difluoromethyl)-2-(3-fluoro-2-hydroxyphenyl)-5,6,6a,7,8,9-hexahydropyrrolo[1′,2′:4,5]pyrazino[2,3-c]pyridazin-8-yl)oxy)pyridin-3-yl)methyl)piperazin-1-yl)-1-oxoisoindolin-2-yl)piperidine-2,6-dione] |
| > 1000 | < 50 | < 100 | > 75 | O=C1CCC(N2Cc3ccc(N4CCN(Cc5cnc(O[C@H]6CN7c8cc(-c9cccc(F)c9O)nnc8NC[C@]7(C(F)F)C6)nc5)CC4)cc3C2=O)C(=O)N1 (stereo partly drawn) [Example 42, 3-(6-(4-((2-(((6aS,8R)-6a-(difluoromethyl)-2-(3-fluoro-2-hydroxyphenyl)-5,6,6a,7,8,9-hexahydropyrrolo [1%2′:4,5]pyrazino[2,3-c]pyridazin-8-yl)oxy)pyrimidin-5-yl)methyl)piperazin-1-yl)-1-oxoisoindolin-2-yl)piperidine-2,6-dione] |
| < 100 | 50 to 75 | < 100 | > 75 | Cc1cc(O[C@H]2CN3c4cc(-c5cccc(F)c5O)nnc4NC[C@]3(C)C2)cnc1CN1CCN(c2ccc3c(c2)C(=O)N([C@H]2CCC(=O)NC2=O)C3)CC1 [Example 82, (S)-3-(6-(4-((5-(((6aS,8R)-2-(3-fluoro-2-hydroxyphenyl)-6a-methyl-5,6,6a,7,8,9-hexahydropyrrolo[1′,2′:4,5]pyrazino[2,3-c]pyridazin-8-yl)oxy)-3-methylpyridin-2-yl)methyl)piperazin-1-yl)-1-oxoisoindolin-2-yl)piperidine-2,6-dione] |
| > 1000 | < 50 | < 100 | > 75 | Cc1cc(O[C@@H]2C[C@@H]3CNc4nnc(-c5cc(F)cc(F)c5O)cc4N3C2)cc(C)c1CN1CCN(c2ccc3c(c2)C(=O)N(C2CCC(=O)NC2=O)C3)CC1 (stereo partly drawn) [Example 17, 3-(6-(4-(4-(((6aR,8R)-2-(3,5-difluoro-2-hydroxyphenyl)-5,6,6a,7,8,9-hexahydropyrrolo[1′,2′:4,5]pyrazino[2,3-c]pyridazin-8-yl)oxy)-2,6-dimethylbenzyl)piperazin-1-yl)-1-oxoisoindolin-2-yl)piperidine-2,6-dione] |
| < 100 | > 75 | < 100 | > 75 | O=C1CCC(N2Cc3ccc(N4CCN(Cc5ccc(O[C@@H]6C[C@@H]7CNc8nnc(-c9cc(F)cc(Cl)c9O)cc8N7C6)cc5)CC4)cc3C2=O)C(=O)N1 (stereo partly drawn) [Example 22, 3-(6-(4-(4-(((6aR,8R)-2-(3-chloro-5-fluoro-2-hydroxyphenyl)-5,6,6a,7,8,9-hexahydropyrrolo[1′,2′:4,5]pyrazino[2,3-c]pyridazin-8-yl)oxy)benzyl)piperazin-1-yl)-1-oxoisoindolin-2-yl)piperidine-2,6-dione] |
| 100 to 1000 | < 50 | < 100 | > 75 | Cc1cc(O[C@H]2CN3c4cc(-c5cccc(F)c5O)nnc4NC[C@@]3(C)C2)cnc1CN1CCN(c2ccc3c(c2)C(=O)N([C@H]2CCC(=O)NC2=O)C3)CC1 [Example 81, (S)-3-(6-(4-((5-(((6aR,8R)-2-(3-fluoro-2-hydroxyphenyl)-6a-methyl-5,6,6a,7,8,9-hexahydropyrrolo[1′,2′:4,5]pyrazino[2,3-c]pyridazin-8-yl)oxy)-3-methylpyridin-2-yl)methyl)piperazin-1-yl)-1-oxoisoindolin-2-yl)piperidine-2,6-dione] |
